# Laboratory results taken from patent US20120270884A1, “Methods of Treating Aneurysmal Dilatation, Blood Vessel Wall Weakness and Specifically Abdominal Aortic and Thoracic Aneurysm Using Matrix Metalloprotease-2 Inhibitors” (SYMPHONY EVOLUTION, INC., priority 2009, published 2012).
# What was measured:
# Type in all cases: biochemical
# [1] = molecular target: TACE (TNF-alpha converting enzyme, ADAM-17) (Homo sapiens, UniProt P78536); experiment: In vitro metalloprotease inhibition, TACE
# From the text: (§1) Blank cells indicate lack of data only.
# [2] = molecular target: T1, MMP-1 (Fibroblast collagenase) (Homo sapiens, UniProt P03956); experiment: In vitro metalloprotease inhibition, MMP-1
# T1 sequence (P03956 100-469): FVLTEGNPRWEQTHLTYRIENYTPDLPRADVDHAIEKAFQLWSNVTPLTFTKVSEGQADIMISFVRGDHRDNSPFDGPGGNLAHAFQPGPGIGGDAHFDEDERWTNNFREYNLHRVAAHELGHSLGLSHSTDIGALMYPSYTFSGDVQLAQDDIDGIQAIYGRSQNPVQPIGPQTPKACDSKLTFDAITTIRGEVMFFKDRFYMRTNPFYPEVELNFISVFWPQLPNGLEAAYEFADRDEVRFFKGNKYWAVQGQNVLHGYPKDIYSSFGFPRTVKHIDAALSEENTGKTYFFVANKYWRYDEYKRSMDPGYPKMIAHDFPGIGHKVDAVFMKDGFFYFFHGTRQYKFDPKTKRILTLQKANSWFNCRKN
# From the text: as §1
# [3] = molecular target: T2, MMP-2 (72 kDa gelatinase, gelatinase A) (Homo sapiens, UniProt P08253); experiment: In vitro metalloprotease inhibition, MMP-2
# T2 sequence (P08253 110-660): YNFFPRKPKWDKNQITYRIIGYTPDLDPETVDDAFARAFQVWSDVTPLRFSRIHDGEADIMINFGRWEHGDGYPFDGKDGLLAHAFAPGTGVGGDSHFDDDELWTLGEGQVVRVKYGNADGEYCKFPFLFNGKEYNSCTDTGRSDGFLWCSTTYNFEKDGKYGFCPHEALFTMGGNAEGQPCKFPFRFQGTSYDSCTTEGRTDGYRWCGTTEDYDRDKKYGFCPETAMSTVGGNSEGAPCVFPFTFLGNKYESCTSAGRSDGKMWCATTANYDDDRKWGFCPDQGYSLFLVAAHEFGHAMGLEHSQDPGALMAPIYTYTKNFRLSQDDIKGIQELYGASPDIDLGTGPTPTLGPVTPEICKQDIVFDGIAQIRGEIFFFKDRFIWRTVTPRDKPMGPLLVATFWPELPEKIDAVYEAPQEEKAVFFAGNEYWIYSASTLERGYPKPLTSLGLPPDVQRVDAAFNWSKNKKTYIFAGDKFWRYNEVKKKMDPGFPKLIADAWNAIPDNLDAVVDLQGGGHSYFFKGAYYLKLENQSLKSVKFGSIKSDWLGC
# [4] = molecular target: MMP-3 (Stromelysin-1) (Homo sapiens, UniProt P08254); experiment: In vitro metalloprotease inhibition, MMP-3
# Sequence of MMP-3 (Stromelysin-1) (P08254 100-477, species assumed): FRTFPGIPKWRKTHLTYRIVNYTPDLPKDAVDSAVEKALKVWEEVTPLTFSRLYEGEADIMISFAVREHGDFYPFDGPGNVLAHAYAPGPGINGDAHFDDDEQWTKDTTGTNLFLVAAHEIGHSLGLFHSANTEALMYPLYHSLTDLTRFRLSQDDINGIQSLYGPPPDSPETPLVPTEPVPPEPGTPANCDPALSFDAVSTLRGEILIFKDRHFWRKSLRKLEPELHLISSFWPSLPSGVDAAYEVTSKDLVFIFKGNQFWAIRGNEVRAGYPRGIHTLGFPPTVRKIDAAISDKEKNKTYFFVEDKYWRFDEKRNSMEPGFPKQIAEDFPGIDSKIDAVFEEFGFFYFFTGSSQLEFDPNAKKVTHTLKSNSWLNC
# From the text: as §1
# [5] = molecular target: MMP-13 (collagenase-3) (Homo sapiens, UniProt P45452); experiment: In vitro metalloprotease inhibition, MMP-13
# Sequence of TACE (TNF-alpha converting enzyme, ADAM-17) (P78536 215-824): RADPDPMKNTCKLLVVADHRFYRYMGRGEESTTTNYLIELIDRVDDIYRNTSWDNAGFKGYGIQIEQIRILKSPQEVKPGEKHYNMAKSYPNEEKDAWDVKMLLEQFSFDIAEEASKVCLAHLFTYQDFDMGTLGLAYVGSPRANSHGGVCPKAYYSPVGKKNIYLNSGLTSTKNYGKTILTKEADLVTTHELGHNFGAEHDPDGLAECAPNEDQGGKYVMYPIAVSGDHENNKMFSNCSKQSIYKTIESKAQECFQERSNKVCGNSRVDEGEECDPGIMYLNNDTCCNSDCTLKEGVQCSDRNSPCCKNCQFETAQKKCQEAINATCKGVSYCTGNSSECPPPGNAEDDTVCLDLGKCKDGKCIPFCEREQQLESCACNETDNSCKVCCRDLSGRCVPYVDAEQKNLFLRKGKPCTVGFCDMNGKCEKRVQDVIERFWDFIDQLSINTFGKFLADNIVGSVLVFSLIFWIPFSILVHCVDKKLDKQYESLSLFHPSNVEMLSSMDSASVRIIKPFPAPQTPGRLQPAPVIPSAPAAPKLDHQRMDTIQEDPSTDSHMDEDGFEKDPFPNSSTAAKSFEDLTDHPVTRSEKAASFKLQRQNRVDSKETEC
smiles,measurement,setting,value
O=C(NO)[C@H]1CN(S(=O)(=O)c2cccnc2O)CCN1S(=O)(=O)c1cc(F)c(Oc2ccc(Cl)cc2)c(F)c1 [Entry 45],IC50,[1],50 to 1000 nM
same,IC50,[2],1000 to 20000 nM
same,IC50,[3],< 50 nM
same,IC50,[4],50 to 1000 nM
same,IC50,[5],< 50 nM
O=C(NO)[C@H]1CN(C(=O)C(=O)N2CCOCC2)CCN1S(=O)(=O)c1cc(F)c(Oc2ccc(Cl)cc2)c(F)c1 [Entry 31],IC50,[1],50 to 1000 nM
same,IC50,[2],1000 to 20000 nM
same,IC50,[3],< 50 nM
same,IC50,[4],50 to 1000 nM
same,IC50,[5],< 50 nM
CN(C)CCS(=O)(=O)N1CCN(S(=O)(=O)c2cc(F)c(Oc3ccc(Cl)cc3)c(F)c2)[C@@H](C(=O)NO)C1 [Entry 54],IC50,[1],< 50 nM
same,IC50,[2],50 to 1000 nM
same,IC50,[3],< 50 nM
same,IC50,[4],< 50 nM
same,IC50,[5],< 50 nM
O=C(NO)[C@H]1CN(S(=O)(=O)NC(=O)N2CCCCC2)CCN1S(=O)(=O)c1cc(F)c(Oc2ccc(Cl)cc2)c(F)c1 [Entry 37],IC50,[1],50 to 1000 nM
same,IC50,[2],1000 to 20000 nM
same,IC50,[3],< 50 nM
same,IC50,[4],< 50 nM
same,IC50,[5],< 50 nM
O=C(NO)[C@H]1CN(S(=O)(=O)Cc2ccncc2)CCN1S(=O)(=O)c1cc(F)c(Oc2ccc(Cl)cc2)c(F)c1 [Entry 34],IC50,[1],< 50 nM
same,IC50,[2],1000 to 20000 nM
same,IC50,[3],< 50 nM
same,IC50,[4],50 to 1000 nM
same,IC50,[5],< 50 nM
O=C(NO)[C@H]1CN(S(=O)(=O)NC(=O)N2CCOCC2)CCN1S(=O)(=O)c1cc(F)c(Oc2ccc(Cl)cc2)c(F)c1 [Entry 38],IC50,[1],50 to 1000 nM
same,IC50,[2],1000 to 20000 nM
same,IC50,[3],< 50 nM
same,IC50,[4],< 50 nM
same,IC50,[5],< 50 nM
COCCOC(=O)N1CCN(S(=O)(=O)c2ccc(Oc3ccc(F)cc3)nc2)[C@@H](C(=O)NO)C1 [Entry 65],IC50,[2],< 50 nM
same,IC50,[3],< 50 nM
same,IC50,[4],< 50 nM
same,IC50,[5],< 50 nM
O=C(NO)[C@H]1CN(C(=O)CN2CCCCC2)CCN1S(=O)(=O)c1cc(F)c(Oc2ccc(Cl)cc2)c(F)c1 [Entry 26],IC50,[2],> 20000 nM
same,IC50,[3],< 50 nM
same,IC50,[4],1000 to 20000 nM
same,IC50,[5],< 50 nM
COCCOC(=O)N1CCN(S(=O)(=O)c2cc(F)c(Oc3ccc(F)cc3)c(F)c2)[C@@H](C(=O)NO)C1 [Entry 10],IC50,[2],1000 to 20000 nM
same,IC50,[3],< 50 nM
same,IC50,[4],1000 to 20000 nM
same,IC50,[5],< 50 nM
O=C(NO)[C@H]1CN(S(=O)(=O)c2cccc3cnccc23)CCN1S(=O)(=O)c1cc(F)c(Oc2ccc(Cl)cc2)c(F)c1 [Entry 48],IC50,[2],> 20000 nM
same,IC50,[3],< 50 nM
same,IC50,[4],50 to 1000 nM
same,IC50,[5],< 50 nM
O=C(NO)[C@H]1CN(C(=O)c2cccnc2)CCN1S(=O)(=O)c1cc(F)c(Oc2ccc(Cl)cc2)c(F)c1 [Entry 59],IC50,[1],50 to 1000 nM
same,IC50,[2],1000 to 20000 nM
same,IC50,[3],< 50 nM
same,IC50,[4],50 to 1000 nM
same,IC50,[5],< 50 nM
CNC(=O)CN1CCN(S(=O)(=O)c2cc(F)c(Oc3ccc(Cl)cc3)c(F)c2)[C@@H](C(=O)NO)C1 [Entry 19],IC50,[2],> 20000 nM
same,IC50,[3],< 50 nM
same,IC50,[4],50 to 1000 nM
same,IC50,[5],< 50 nM
O=C(NO)[C@H]1CN(C(=O)N2CCOCC2)CCN1S(=O)(=O)c1cc(F)c(Oc2ccc(F)cc2)c(F)c1 [Entry 12],IC50,[2],1000 to 20000 nM
same,IC50,[3],< 50 nM
same,IC50,[4],50 to 1000 nM
same,IC50,[5],< 50 nM
O=C(NO)[C@H]1CN(C(=O)N2CCOCC2)CCN1S(=O)(=O)c1ccc(Oc2ccc(F)cc2)cc1 [Entry 2],IC50,[2],< 50 nM
same,IC50,[3],< 50 nM
same,IC50,[4],< 50 nM
same,IC50,[5],< 50 nM
CN1CCC(OC(=O)N2CCN(S(=O)(=O)c3cc(F)c(Oc4ccc(Cl)cc4)c(F)c3)[C@@H](C(=O)NO)C2)CC1 [Entry 22],IC50,[2],1000 to 20000 nM
same,IC50,[3],< 50 nM
same,IC50,[4],50 to 1000 nM
same,IC50,[5],< 50 nM
CCOC(=O)N1CCN(CC(=O)N2CCN(S(=O)(=O)c3cc(F)c(Oc4ccc(Cl)cc4)c(F)c3)[C@@H](C(=O)NO)C2)CC1 [Entry 23],IC50,[2],> 20000 nM
same,IC50,[3],< 50 nM
same,IC50,[4],1000 to 20000 nM
same,IC50,[5],< 50 nM
O=C(NO)[C@H]1CN(C(=O)N2CCOCC2)CCN1S(=O)(=O)c1ccc(Oc2ccc(Cl)cc2)c(F)c1 [Entry 6],IC50,[2],50 to 1000 nM
same,IC50,[3],< 50 nM
same,IC50,[4],< 50 nM
same,IC50,[5],< 50 nM
O=C(NO)[C@H]1CN(C(=O)NCCN2CCCC2)CCN1S(=O)(=O)c1cc(F)c(Oc2ccc(Cl)cc2)c(F)c1 [Entry 17],IC50,[2],1000 to 20000 nM
same,IC50,[3],< 50 nM
same,IC50,[4],50 to 1000 nM
same,IC50,[5],< 50 nM
COCCOC(=O)N1CCN(S(=O)(=O)c2ccc(Oc3ccc(F)cc3)c(F)c2)[C@@H](C(=O)NO)C1 [Entry 3],IC50,[2],50 to 1000 nM
same,IC50,[3],< 50 nM
same,IC50,[4],1000 to 20000 nM
same,IC50,[5],< 50 nM
O=C(NO)[C@H]1CN(S(=O)(=O)CCN2CCOCC2)CCN1S(=O)(=O)c1cc(F)c(Oc2ccc(Cl)cc2)c(F)c1 [Entry 57],IC50,[2],> 20000 nM
same,IC50,[3],50 to 1000 nM
same,IC50,[4],1000 to 20000 nM
same,IC50,[5],50 to 1000 nM
COCCOC(=O)N1CCN(S(=O)(=O)c2cc(F)c(Oc3ccccc3)c(F)c2)[C@@H](C(=O)NO)C1 [Entry 40],IC50,[2],1000 to 20000 nM
same,IC50,[3],< 50 nM
same,IC50,[4],50 to 1000 nM
same,IC50,[5],< 50 nM
C=CCN1CCN(S(=O)(=O)c2cc(F)c(Oc3ccc(Cl)cc3)c(F)c2)[C@@H](C(=O)NO)C1 [Entry 62],IC50,[2],> 20000 nM
same,IC50,[3],< 50 nM
same,IC50,[4],1000 to 20000 nM
same,IC50,[5],< 50 nM
CN(C)c1cccc2c(S(=O)(=O)N3CCN(S(=O)(=O)c4cc(F)c(Oc5ccc(Cl)cc5)c(F)c4)[C@@H](C(=O)NO)C3)cccc12 [Entry 60],IC50,[2],> 20000 nM
same,IC50,[3],< 50 nM
same,IC50,[4],1000 to 20000 nM
same,IC50,[5],< 50 nM
O=C(NO)[C@H]1CN(S(=O)(=O)CCN2CCCCC2)CCN1S(=O)(=O)c1cc(F)c(Oc2ccc(Cl)cc2)c(F)c1 [Entry 53],IC50,[2],50 to 1000 nM
same,IC50,[3],< 50 nM
same,IC50,[4],50 to 1000 nM
same,IC50,[5],< 50 nM
CN1CCN(CCS(=O)(=O)N2CCN(S(=O)(=O)c3cc(F)c(Oc4ccc(Cl)cc4)c(F)c3)[C@@H](C(=O)NO)C2)CC1 [Entry 55],IC50,[2],1000 to 20000 nM
same,IC50,[3],< 50 nM
same,IC50,[4],50 to 1000 nM
same,IC50,[5],< 50 nM
CCOC(=O)N1CCN(CCS(=O)(=O)N2CCN(S(=O)(=O)c3cc(F)c(Oc4ccc(Cl)cc4)c(F)c3)[C@@H](C(=O)NO)C2)CC1 [Entry 56],IC50,[2],1000 to 20000 nM
same,IC50,[3],< 50 nM
same,IC50,[4],50 to 1000 nM
same,IC50,[5],< 50 nM
